Results on four compounds are retold here after patent US9873659B2, “Solutions of trialkali metal salts of MGDA with an excess of L-enantiomer, their manufacture and use” (BASF SE, priority 2014, dated 2018).

The conditions of data set [1]: room temperature; colder solutions may lead to precipitation; cited from earlier work.
Data set [2] in a line: Solubility experiments: concentrated aqueous solutions stored and checked for crystallization or precipitation. Type of data set: physicochemical. The note with it: for sign of crystallization or precipitation on storage: aqueous solution, 90 days at 20° C.; for solids content of the concentrated aqueous solution that stayed free of crystallization or precipitation: concentrated by evaporation of water at 70° C., cooled to ambient temperature, stable 90 days at 20° C. The method, then:
In each case, the solubility refers to MGDA without hydrate water.
It was allowed to cool down to ambient temperature.
The aqueous solution of MGDA-K2.35Na0.65 obtained according to I.4 was concentrated by evaporation of a part of the water at 70° C. until the solids content was 65% by weight. It was allowed to cool down to ambient temperature.

With `CC(C(=O)[O-])N(CC(=O)[O-])CC(=O)[O-].[Na+].[Na+].[Na+]` (racemic) [racemic MGDA trisodium salt], the “concentration of aqueous solution that can be made and stored” value in data set [1] was “about 40 % by weight”.

Take “MGDA-K2.35Na0.65 [MGDA-K2.35Na0.65 obtained according to I.2]”: the “sign of crystallization or precipitation on storage” value (from here on “sign”) in data set [2] (solids content 64.5% by weight) was “did not show any sign of crystallization or precipitation”. In addition, the “solids content of the concentrated aqueous solution that stayed free of crystallization or precipitation” value in data set [2] was found to be 64.5 % by weight.

In the case of “MGDA-K2.35Na0.65 [MGDA-K2.35Na0.65 obtained according to I.3]”, the “sign” value in data set [2] (solids content 61.1% by weight) is reported as “did not show any sign of crystallization or precipitation”. Further, the “solids content of the concentrated aqueous solution that stayed free of crystallization or precipitation” value in data set [2] is listed as 61.1 % by weight.

For “MGDA-K2.35Na0.65 [MGDA-K2.35Na0.65 obtained according to I.4]”, in data set [2] (solids content 65% by weight), the “sign” value is “did not show any sign of crystallization or precipitation”. In addition, in data set [2], the “solids content of the concentrated aqueous solution that stayed free of crystallization or precipitation” value came out at 65 % by weight.
